Structures can show the parent of a compound that is named as a salt.
Assays:
Assay type in all cases: in vivo
[1] = tested on: Monochoria vaginalis, Presl.; assay: Preemergence weed control under flooded paddy conditions, MOOVA (Monochoria); conditions: flooded paddy; for MOOVA: preemergence weeds, herbicidal effect rating 0-9, three to four weeks after treatment; for MOOVA herbicidal rating: preemergence, rated three to four weeks after treatment
[2] = tested on: Echinochloa oryzoides (Ard.) Fritsch.; assay: Preemergence weed control under flooded paddy conditions, ECHORC (Watergrass (Calif.)); conditions: flooded paddy; for ECHORC: preemergence weeds, herbicidal effect rating 0-9, three to four weeks after treatment; for ECHORC herbicidal rating / herbicidal effect rating, ECHORC: preemergence, rated three to four weeks after treatment; for herbicidal effect rating, ECHORC: meaning of each grade not given here
[3] = tested on: Cyperus serotinus, Rottb.; assay: Preemergence weed control under flooded paddy conditions, CYPSE (Flatsedge); conditions: for CYPSE: preemergence weeds, herbicidal effect rating 0-9, three to four weeks after treatment; for CYPSE herbicidal rating / herbicidal effect rating, CYPSE: preemergence, rated three to four weeks after treatment; for herbicidal effect rating, CYPSE: meaning of each grade not given here
Cyperus iria = assay: Preemergence weed control under flooded paddy conditions, CYPIR (Rice Flatsedge); conditions: flooded paddy; for CYPIR: preemergence weeds, herbicidal effect rating 0-9, three to four weeks after treatment; for CYPIR herbicidal rating / herbicidal effect rating, CYPIR: preemergence, rated three to four weeks after treatment; for herbicidal effect rating, CYPIR: meaning of each grade not given here
Sagittaria pygmaea, L. = assay: Preemergence weed control under flooded paddy conditions, SAGPY (Arrowhead (Pygmaea)); conditions: flooded paddy; for SAGPY: preemergence weeds, herbicidal effect rating 0-9, three to four weeks after treatment; for SAGPY herbicidal rating / herbicidal effect rating, SAGPY: preemergence, rated three to four weeks after treatment; for herbicidal effect rating, SAGPY: meaning of each grade not given here

| SMILES | MOOVA ([1]; 0.0620 kg/ha) | MOOVA ([1]; 0.1250 kg/ha) | MOOVA ([1]; 0.2500 kg/ha) | ECHORC ([2]; 0.0320 kg/ha) | ECHORC ([2]; 0.0620 kg/ha) | ECHORC ([2]; 0.1250 kg/ha) | ECHORC ([2]; 0.2500 kg/ha) | CYPSE ([3]; 0.1250 kg/ha) | CYPIR (Cyperus iria; 0.0320 kg/ha) | CYPIR (Cyperus iria; 0.0620 kg/ha) | CYPIR (Cyperus iria; 0.1250 kg/ha) | CYPIR (Cyperus iria; 0.2500 kg/ha) | CYPSE ([3]; 0.0620 kg/ha) | CYPSE ([3]; 0.2500 kg/ha) | ECHORC herbicidal rating ([2]; 0.0320 kg/ha) | ECHORC herbicidal rating ([2]; 0.0620 kg/ha) | ECHORC herbicidal rating ([2]; 0.1250 kg/ha) | ECHORC herbicidal rating ([2]; 0.2500 kg/ha) | SAGPY herbicidal rating (Sagittaria pygmaea, L.; 0.0320 kg/ha) | SAGPY herbicidal rating (Sagittaria pygmaea, L.; 0.0620 kg/ha) | also measured |
| --- | --- | --- | --- | --- | --- | --- | --- | --- | --- | --- | --- | --- | --- | --- | --- | --- | --- | --- | --- | --- | --- |
| Cn1c(C(F)(F)F)cc(=O)n(-c2ccc3snc(C(=O)NOS(=O)(=O)O)c3c2)c1=O [Example 417, 1,2-Benzisothiazole-3-carbohydroxamic acid, 5-[3,6-dihydro-3-methyl-2,6-dioxo-4-(trifluoromethyl)-1(2H)-pyrimidinyl]-, hydrogen sulfate (ester)] | 6.0 | 9.0 | 9.0 | 0.0 | 0.0 | 3.0 | 3.0 | 3.0 | 4.0 | 4.0 | 5.0 | 6.0 |  |  |  |  |  |  |  |  | MOOVA ([1]; 0.0320 kg/ha): 6.0 |
| CC(=O)OCCSC(SCCOC(C)=O)c1nsc2ccc(-n3c(=O)cc(C(F)(F)F)n(C)c3=O)cc12 [Example 418, 1,2-Benzisothiazole-3-carboxaldehyde, 5-[3,6-dihydro-3-methyl-2,6-dioxo-4-(trifluoromethyl)-1(2H)-pyrimidinyl]-, 3-[bis(2-hydroxyethyl)dithioacetal], diacetate (diester)] | 0.0 | 0.0 | 0.0 |  | 0.0 | 1.0 | 3.0 |  |  | 0.0 | 0.0 | 0.0 | 0.0 | 0.0 |  |  |  |  |  |  |  |
| CC(=O)OCCCSC(SCCCOC(C)=O)c1nsc2ccc(-n3c(=O)cc(C(F)(F)F)n(C)c3=O)cc12 [Example 426, 1,2-Benzisothiazole-3-carboxaldehyde, 5-[3,6-dihydro-3-methyl-2,6-dioxo-4-(trifluoromethyl)-1(2H)-pyrimidinyl]-, 3-[bis(3-hydroxypropyl)dithioacetal], diacetate (diester)] |  |  |  | 5.0 | 5.0 | 5.0 | 9.0 | 0.0 | 5.0 | 7.0 | 7.0 | 9.0 | 0.0 | 2.0 |  |  |  |  |  |  | CYPSE ([3]; 0.0320 kg/ha): 0.0; SAGPY (Sagittaria pygmaea, L.; 0.0320 kg/ha): 0.0; SAGPY (Sagittaria pygmaea, L.; 0.0620 kg/ha): 2.0; SAGPY (Sagittaria pygmaea, L.; 0.1250 kg/ha): 4.0; SAGPY (Sagittaria pygmaea, L.; 0.2500 kg/ha): 4.0 |
| COCC(=O)OCc1nsc2ccc(-n3c(=O)cc(C(F)(F)F)n(C)c3=O)cc12 [Example 495, 2,4(1H,3H)-Pyrimidinedione, 3-[3-(hydroxymethyl)-1,2-benzisothiazol-5-yl]-1-methyl-6-(trifluoromethyl)-, methoxyacetate (ester)] |  |  |  |  |  |  |  |  |  |  |  |  |  |  | 3.0 | 4.0 | 5.0 | 7.0 | 0.0 | 0.0 | MOOVA herbicidal rating ([1]; 0.0320 kg/ha): 7.0; MOOVA herbicidal rating ([1]; 0.0620 kg/ha): 7.0; MOOVA herbicidal rating ([1]; 0.1250 kg/ha): 9.0; MOOVA herbicidal rating ([1]; 0.2500 kg/ha): 9.0; SAGPY herbicidal rating (Sagittaria pygmaea, L.; 0.1250 kg/ha): 3.0; CYPIR herbicidal rating (Cyperus iria; 0.0320 kg/ha): 6.0; CYPIR herbicidal rating (Cyperus iria; 0.0620 kg/ha): 6.0; CYPIR herbicidal rating (Cyperus iria; 0.1250 kg/ha): 7.0; CYPIR herbicidal rating (Cyperus iria; 0.2500 kg/ha): 9.0 |
| CC(C)N(C(C)C)S(=O)(=O)NC(=O)C(C)(C)c1nsc2ccc(-n3c(=O)cc(C(F)(F)F)n(C)c3=O)cc12 [Example 511, 1,2-Benzisothiazole-3-acetamide, 5-[3,6-dihydro-3-methyl-2,6-dioxo-4-(trifluoromethyl)-1(2H)-pyrimidinyl]-N-(diisopropylsulfamoyl)-alpha, alpha-dimethyl-] |  |  |  |  |  |  |  |  |  |  |  |  |  |  | 0.0 | 2.0 | 5.0 | 7.0 | 0.0 | 0.0 | CYPSE herbicidal rating ([3]; 0.0320 kg/ha): 0.0; CYPSE herbicidal rating ([3]; 0.0620 kg/ha): 0.0; CYPSE herbicidal rating ([3]; 0.1250 kg/ha): 3.0; CYPSE herbicidal rating ([3]; 0.2500 kg/ha): 3.0; SAGPY herbicidal rating (Sagittaria pygmaea, L.; 0.1250 kg/ha): 0.0; SAGPY herbicidal rating (Sagittaria pygmaea, L.; 0.2500 kg/ha): 7.0; CYPIR herbicidal rating (Cyperus iria; 0.0320 kg/ha): 0.0; CYPIR herbicidal rating (Cyperus iria; 0.0620 kg/ha): 0.0; CYPIR herbicidal rating (Cyperus iria; 0.1250 kg/ha): 2.0; CYPIR herbicidal rating (Cyperus iria; 0.2500 kg/ha): 7.0 |
| CC(=O)OCCOC(=O)COc1ccc(C)cc1-c1nsc2ccc(-n3c(=O)cc(C(F)(F)F)n(C)c3=O)cc12 [Example 578, Acetic acid, {{2-{5-[3,6-dihydro-3-methyl-2,6-dioxo-4-(trifluoromethyl)-1(2H)-pyrimidinyl]-1,2-benzisothiazol-3-yl}-p-tolyl}oxy}-, 2-hydroxyethyl ester, acetate (ester)] |  |  |  |  |  |  |  |  |  |  |  |  |  |  |  |  |  |  |  |  | herbicidal effect rating, ECHORC ([2]; Rate 0.0320 kg/ha): 5.0; herbicidal effect rating, ECHORC ([2]; Rate 0.0620 kg/ha): 6.0; herbicidal effect rating, ECHORC ([2]; Rate 0.1250 kg/ha): 7.0; herbicidal effect rating, ECHORC ([2]; Rate 0.2500 kg/ha): 9.0; herbicidal effect rating, CYPSE ([3]; Rate 0.0320 kg/ha): 3.0; herbicidal effect rating, CYPSE ([3]; Rate 0.0620 kg/ha): 6.0; herbicidal effect rating, CYPSE ([3]; Rate 0.1250 kg/ha): 6.0; herbicidal effect rating, CYPSE ([3]; Rate 0.2500 kg/ha): 9.0; herbicidal effect rating, SAGPY (Sagittaria pygmaea, L.; Rate 0.0320 kg/ha): 3.0; herbicidal effect rating, SAGPY (Sagittaria pygmaea, L.; Rate 0.0620 kg/ha): 6.0; herbicidal effect rating, SAGPY (Sagittaria pygmaea, L.; Rate 0.1250 kg/ha): 6.0; herbicidal effect rating, SAGPY (Sagittaria pygmaea, L.; Rate 0.2500 kg/ha): 9.0; herbicidal effect rating, CYPIR (Cyperus iria; Rate 0.0320 kg/ha): 4.0; herbicidal effect rating, CYPIR (Cyperus iria; Rate 0.0620 kg/ha): 5.0; herbicidal effect rating, CYPIR (Cyperus iria; Rate 0.1250 kg/ha): 5.0; herbicidal effect rating, CYPIR (Cyperus iria; Rate 0.2500 kg/ha): 7.0 |

Source: EP0908457B1, “3-(1,2-benzisothiazol- and isoxazol-5-Y1)-2,4(1H,3H)-pyrimidinedione or thione and 3-(1,2-benzisothiazol- and isoxazol-5-y1)-4(3H)-pyrimidinone or thione herbicidal agents” (BASF AKTIENGESELLSCHAFT, priority 1997, dated 1999)
